Assay results as given in publication PMC5242352 (Iranian Journal of Pharmaceutical Research : IJPR, 2016).
“And” between values parts separate entries of the source, which are not always exact repeats. Equal entries are not always repeated. Where two headings read alike, the source gives them in different places.

Target: Jack bean urease (Canavalia ensiformis, UniProt P07374)
Assay: Urease inhibition assay
Assay type: biochemical

Chain of Jack bean urease (P07374 whole entry, looked up): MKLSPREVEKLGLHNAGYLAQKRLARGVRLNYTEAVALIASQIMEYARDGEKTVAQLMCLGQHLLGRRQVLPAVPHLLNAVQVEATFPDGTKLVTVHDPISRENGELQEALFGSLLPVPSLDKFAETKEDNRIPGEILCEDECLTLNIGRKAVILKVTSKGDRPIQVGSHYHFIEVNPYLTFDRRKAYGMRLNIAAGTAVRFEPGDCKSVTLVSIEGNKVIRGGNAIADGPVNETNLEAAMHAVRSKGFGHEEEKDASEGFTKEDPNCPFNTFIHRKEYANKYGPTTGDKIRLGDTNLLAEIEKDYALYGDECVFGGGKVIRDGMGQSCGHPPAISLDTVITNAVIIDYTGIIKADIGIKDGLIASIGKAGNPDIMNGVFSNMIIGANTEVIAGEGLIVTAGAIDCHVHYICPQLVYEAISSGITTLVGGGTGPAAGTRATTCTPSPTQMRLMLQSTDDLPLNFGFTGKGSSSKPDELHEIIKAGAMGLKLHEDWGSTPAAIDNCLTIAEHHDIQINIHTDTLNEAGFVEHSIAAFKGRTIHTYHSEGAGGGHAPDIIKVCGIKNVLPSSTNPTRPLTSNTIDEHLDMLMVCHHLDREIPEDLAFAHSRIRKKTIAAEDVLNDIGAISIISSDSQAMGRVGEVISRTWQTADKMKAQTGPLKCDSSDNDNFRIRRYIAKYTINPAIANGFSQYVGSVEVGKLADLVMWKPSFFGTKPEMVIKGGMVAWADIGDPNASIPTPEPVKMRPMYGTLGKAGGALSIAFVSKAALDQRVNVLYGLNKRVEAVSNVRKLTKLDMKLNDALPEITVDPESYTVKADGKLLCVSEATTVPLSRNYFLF

NC(=O)NO [hydroxyurea, reference compound]
IC50 (read-out: IC50 (urease inhibitory activity), 37 °C, 30 minutes, read at 625 nm, triplicate): 100 µM

CC1(C)CC(=O)C2=C(C1)Nc1[nH]c(=O)[nH]c(=O)c1C21C(=O)Nc2ccccc21 (centres unmarked) [7a, 8',8'-Dimethyl-8',9'-dihydro-1'H-spiro [indoline-3,5'-pyrimido[4,5-b]quinoline]-2,2',4', 6'(3'H,7'H,10'H)-tetraone]
IC50 (IC50 (urease inhibitory activity), 37 °C, 30 minutes, read at 625 nm, triplicate): 7.44 µM and 2.81 µM
